In EP4574817A1 (LoQus23 Therapeutics Limited, priority 2023, dated 2025):

Legend:
MutSβ = target: T1, MutSβ (Homo sapiens, UniProt P20585+P43246); assay: MutSβ ADP Glo Assay; assay type: biochemical; settings: 20nM MutSβ, 30nM CAG DNA, 25 µM ATP, 2 hours at room temperature
T1 construct: purchased AMRI
Protocol: Biological Example A - MutSβ Assay
• MutSβ (supplied by AMRI) stored at -70°C • ADP Glo Kinase Assay Kit (Promega: V9102) stored at -20°C • ATP (supplied within the ADP Glo Kit) stored at -20°C • 1M KCI (Sigma Aldrich: P9333) stored at 2-8°C • 1 M HEPES pH 7.5 (Gibco: M15630-080) stored at 2-8°C • 1M MgCl2 (Sigma Aldrich: M1028-100mL) stored at 2-8°C • Tween-20 (Sigma Aldrich: P1379) (10% solution) stored at 2-8°C • 500mM DTT (Sigma Aldrich: 10197777001) stored at -20°C • CAG loop DNA for MutSβ (made in house) stored at -20°C • MilliQ water stored at room temperature
• 1. Prepare the buffer fresh each day • 2. Take the enzyme from the freezer, thaw in room temperature water and centrifuge at 13,000 rpm for 10 minutes at 2-8C, then make up enzyme and ATP stocks • 3. Quality Control the multidrop head to a %CV of <2% • 4. Add 3µL of 33.34nM MutSβ and 50.01nM CAG looped DNA solution […] to each well in columns 1 and 3-23 of the plate • 5. Pre-incubate the MutSβ and buffer mix for 10 minutes with the compounds • 6. Wash the multidrop head through with MilliQ water (for at least 30 seconds) • 7. Add 3µL of MutSβ Assay buffer (without enzyme) to columns 2 and 24 for the vehicle controls • 8. Wash the multidrop head through with MilliQ water (for at least 30 seconds) • 9. Add 2µL of 62.5µM ATP to each well of the whole plate, then wash with MilliQ water (for a minimum of 30 seconds) • 10. Centrifuge plate for 1 minute at 1000 rpm • 11. Incubate for 2 hours at room temperature • 12. Add 5µL of ADP Glo reagent to each well of the whole plate and wash the multidrop head with MilliQ water (for a minimum of 30 seconds) • 13. Incubate for 40 minutes at room temperature (minimum requirement) • 14. Add 10µL of Kinase Detection Reagent to each well of the whole plate • 15. Wash the multidrop head with MilliQ water more than 1 minute and then dry • 16. Remove the head and put the cover back on for overnight storage • 17. Incubate for 30 minutes at room temperature (minimum requirement) • 18. Read on a microplate reader

U20S-IC6 cells = assay: Lo-Q platform assay (CAG repeat expansion in a clonal cell line with tetracycline-regulated exon 1 HTT ~100 CAG / nanoluc); assay type: cell-based; settings: 336 h, 2-week assay with tetracycline pulsing, read-out: Minimum effective concentration (MEC)
Text: The cell line that was used in the assay below was generated as follows:
The pcDNA™4/TO vector contains two tetracycline operator 2 (TetO2) sites within the human cytomegalovirus immediate-early (CMV) promoter for tetracycline regulated expression of your gene of interest (Yao et al., 1998). The TetO2 sequences serve as binding sites for four Tet repressor molecules (comprising two Tet repressor homodimers) and confer tetracycline-responsiveness to the gene of interest. In the absence of tetracycline, expression of your gene of interest is repressed by the binding of Tet repressor homodimers to the TetO2 sequences. Addition of tetracycline to the cells de-represses the hybrid CMV/TetO2 promoter in pcDNA™4/TO and allows expression of your gene of interest. The pcDNA™6/TR regulatory plasmid is designed for use with the T-REx™ System for tetracycline-regulated expression of the gene of interest in mammalian cells. (www.lifetechnologies.com).
The expression sequence comprises exon 1 huntingtin with ~100 pure CAG repeats, a P2A self-cleaving peptide and a nanoluc sequence followed by a polyA signal. Full plasmid sequence is indicated (Seq ID NO:3). The plasmid contains sequences for ampicillin (bacterial propagation) and zeocin (mammalian cell lines) resistance.
The U-2 OS cell line (purchased from LGC standards, ATCC) is derived from a moderately differentiated sarcoma from the tibia of an adolescent person. Karyotyping has shown that although there are a lot of chromosomal abnormalities the tumour suppressor genes p53 and pRb are still fully functional in the U2OS cell line.
Routine culture of the adherent cells in non-PDL plastic ware in a humidified 37°C incubator with 5% CO2. Cells were maintained in McCoy's 5A (modified) medium with GlutaMAX supplement (Life Technologies 3660-021) and tetracycline-free FBS (Clontech 631106). Maintenance medium for the clonal cell lines expressing Tet repressor and exon 1 HTT/nanoluc constructs were additionally supplemented with zeocin to 100 ug/ml and blasticidin to 1.25 ug/ml. Cells were passaged at 70-80% confluence once or twice a week, either to a split ratio or defined seeding density using DPBS and TrypLE express enzyme (1x, no phenol red, Life technologies 12604-039) was used to dissociate the cells. Cells were frozen with Cell Banker (AMSBIO 11891) or with medium plus 10% DMSO and stored in liquid nitrogen vapour phase.
Stable, clonal cell lines (e.g. 1C6) are leveraged either identify potential druggable targets, and to assess the effectiveness of therapeutic compounds against a Huntington's disease, by way of quantifying CAG repeats expansion rates.
• Place a vial of the cell line U20S-IC6 (1-2×10^6 cells/mL), produced as described above, in a water bath at 37°C for 30 s. Once thawed, quickly transfer the cells into a 15 mL falcon tube containing 9 mL of McCoys 5A media, supplemented with 10% Tet-free FBS. • Pellet the cells by centrifugation at 300 x g for 5 m and discard the supernatant. • Resuspend the cell pellet in 10 mL fresh media and transfer to a sterile T75 culture flask. • Inspect the culture after 24 h and maintain the cells below 80% confluency, typically passaging every 3-4 days.
The Lo-Q platform has been optimised to run as a 2-week assay, following the standard processes detailed in the schematic in Figure 1A.
• Cell seeding for Lo-Q platform assays should be initiated on Mondays (am) to ensure Tetracycline pulsing can be maintained every other day. • The Friday prior to initiating any Lo-Q platform assay ensure there are sufficient cells in culture to seed the required number of assay plates. If required, passage the cells, otherwise perform a media change to McCoys 5A, 10% Tet-free FBS, 1.25 µg/mL Blasticidin®, and 100 µg/mL Zeocin®. • On the Monday morning, aspirate the media from the required number of culture flasks containing U20S-IC6 cells and wash with 2 mL PBS. • Aspirate the PBS and add 2 mL 0.25% Trypsin EDTA. […]

T1 sequence (P43246 whole entry): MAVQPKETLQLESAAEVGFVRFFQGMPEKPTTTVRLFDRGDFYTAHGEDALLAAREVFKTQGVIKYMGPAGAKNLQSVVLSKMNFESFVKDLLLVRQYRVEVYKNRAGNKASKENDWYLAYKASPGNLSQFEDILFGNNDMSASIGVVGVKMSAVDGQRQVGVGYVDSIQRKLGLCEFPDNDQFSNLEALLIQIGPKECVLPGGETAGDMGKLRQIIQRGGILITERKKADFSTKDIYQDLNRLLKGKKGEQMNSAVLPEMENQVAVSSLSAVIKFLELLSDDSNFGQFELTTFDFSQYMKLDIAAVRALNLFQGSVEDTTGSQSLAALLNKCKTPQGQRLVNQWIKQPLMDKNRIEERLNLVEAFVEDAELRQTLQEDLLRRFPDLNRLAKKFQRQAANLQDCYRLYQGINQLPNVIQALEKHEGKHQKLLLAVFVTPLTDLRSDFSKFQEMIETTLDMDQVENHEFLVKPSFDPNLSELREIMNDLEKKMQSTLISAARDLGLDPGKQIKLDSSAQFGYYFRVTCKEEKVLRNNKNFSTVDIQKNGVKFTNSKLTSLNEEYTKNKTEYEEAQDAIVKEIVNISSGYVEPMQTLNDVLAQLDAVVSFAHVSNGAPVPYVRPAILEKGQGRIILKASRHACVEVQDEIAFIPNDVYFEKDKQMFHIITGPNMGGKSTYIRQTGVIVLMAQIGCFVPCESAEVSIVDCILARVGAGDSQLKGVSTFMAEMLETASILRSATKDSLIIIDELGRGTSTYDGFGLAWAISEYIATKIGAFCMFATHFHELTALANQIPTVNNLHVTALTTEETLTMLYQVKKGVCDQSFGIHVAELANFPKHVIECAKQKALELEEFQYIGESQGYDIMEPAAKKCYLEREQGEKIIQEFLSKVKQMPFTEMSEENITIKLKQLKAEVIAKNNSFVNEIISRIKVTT
T1 sequence (P20585 whole entry): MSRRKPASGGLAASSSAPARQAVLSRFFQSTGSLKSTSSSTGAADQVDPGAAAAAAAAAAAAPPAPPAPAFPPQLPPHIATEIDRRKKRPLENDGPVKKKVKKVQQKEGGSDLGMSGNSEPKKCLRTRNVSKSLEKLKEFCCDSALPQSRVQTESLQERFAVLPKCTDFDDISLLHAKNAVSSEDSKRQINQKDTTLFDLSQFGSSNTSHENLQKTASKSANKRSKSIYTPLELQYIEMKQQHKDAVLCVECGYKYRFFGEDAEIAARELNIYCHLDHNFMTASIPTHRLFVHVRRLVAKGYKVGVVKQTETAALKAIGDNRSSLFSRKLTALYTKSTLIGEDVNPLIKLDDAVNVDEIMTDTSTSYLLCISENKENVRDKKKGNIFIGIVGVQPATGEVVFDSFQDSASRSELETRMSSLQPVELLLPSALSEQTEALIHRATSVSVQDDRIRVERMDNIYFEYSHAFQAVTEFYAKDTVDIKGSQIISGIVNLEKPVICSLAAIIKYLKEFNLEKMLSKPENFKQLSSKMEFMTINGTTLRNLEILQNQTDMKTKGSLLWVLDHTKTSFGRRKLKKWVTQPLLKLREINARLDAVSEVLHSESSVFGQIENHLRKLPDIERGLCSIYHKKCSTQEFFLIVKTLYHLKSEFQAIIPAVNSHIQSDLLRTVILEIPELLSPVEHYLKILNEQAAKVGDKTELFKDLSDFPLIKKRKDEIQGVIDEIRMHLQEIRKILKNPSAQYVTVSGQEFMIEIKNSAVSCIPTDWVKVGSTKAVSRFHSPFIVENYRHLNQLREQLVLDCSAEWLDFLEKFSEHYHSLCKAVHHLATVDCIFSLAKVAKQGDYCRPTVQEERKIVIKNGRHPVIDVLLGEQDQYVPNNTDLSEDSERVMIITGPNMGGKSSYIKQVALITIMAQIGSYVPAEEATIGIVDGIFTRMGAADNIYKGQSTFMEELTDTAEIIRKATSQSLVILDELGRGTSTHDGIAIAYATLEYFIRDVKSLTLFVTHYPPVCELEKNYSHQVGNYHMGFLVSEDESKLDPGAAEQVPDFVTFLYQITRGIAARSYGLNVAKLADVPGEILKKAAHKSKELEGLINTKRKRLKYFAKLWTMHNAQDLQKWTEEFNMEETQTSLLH

Row | IC50 (MutSβ) | SMILES | minimal effective concentration (U20S-IC6 cells)
1 | 10000 to 50000 nM | CNS(=O)(=O)OCC(=O)Nc1nc(CO)c(Cc2ccc(C)cc2)s1 [Example 51, 2-((4-(hydroxymethyl)-5-(4-methylbenzyl)thiazol-2-yl)amino)-2-oxoethyl methylsulfamate] | 
2 | 10000 to 50000 nM | CNS(=O)(=O)OCC(=O)Nc1nc(C)c(C(C)(C)c2cccc(Cl)c2)s1 [Example 52, 2-((5-(2-(3-chlorophenyl)propan-2-yl)-4-methylthiazol-2-yl)amino)-2-oxoethyl methylsulfamate] | 
3 | 1000 to 10000 nM | CNS(=O)(=O)OCC(=O)Nc1nc(C)c(Cc2cccc(Cl)c2F)s1 [Example 53, 2-((5-(3-chloro-2-fluorobenzyl)-4-methylthiazol-2-yl)amino)-2-oxoethyl methylsulfamate] | 
4 | 1000 to 10000 nM | CNS(=O)(=O)OCC(=O)Nc1nc(C)c(Cc2cc(F)cc(Cl)c2)s1 [Example 54, 2-((5-(3-chloro-5-fluorobenzyl)-4-methylthiazol-2-yl)amino)-2-oxoethyl methylsulfamate] | 
5 | 1000 to 10000 nM | CNS(=O)(=O)OCC(=O)Nc1nc(C)c(Cc2cc(Cl)ccc2F)s1 [Example 55, 2-((5-(5-chloro-2-fluorobenzyl)-4-methylthiazol-2-yl)amino)-2-oxoethyl methylsulfamate] | 
6 | 1000 to 10000 nM | CNS(=O)(=O)OCC(=O)Nc1nc(C=O)c(Cc2cccc(Cl)c2)s1 [Example 56, 2-((5-(3-chlorobenzyl)-4-formylthiazol-2-yl)amino)-2-oxoethyl methylsulfamate] | 
7 | 500 to 1000 nM | CCN(C(=O)COS(=O)(=O)NC)c1nc(C)c(Cc2cccc(Cl)c2)s1 [Example 57, 2-((5-(3-chlorobenzyl)-4-methylthiazol-2-yl)(ethyl)amino)-2-oxoethyl methylsulfamate] | 
8 | 10000 to 50000 nM | CNS(=O)(=O)OCC(=O)Nc1nc(CN2CCOCC2)c(Cc2cccc(Cl)c2)s1 [Example 58, 2-((5-(3-chlorobenzyl)-4-(morpholinomethyl)thiazol-2-yl)amino)-2-oxoethyl methylsulfamate] | 
9 | ≤ 500 nM | CNS(=O)(=O)OCC(=O)N(C)c1nc(C)c(Cc2ccc(Cl)c(Cl)c2)s1 [Example 59, 2-((5-(3,4-dichlorobenzyl)-4-methylthiazol-2-yl)(methyl)amino)-2-oxoethyl methylsulfamate] | 
10 | 1000 to 10000 nM | CNC(=O)OCc1nc(NC(=O)COS(=O)(=O)NC)sc1Cc1cccc(Cl)c1 [Example 60, 2-((5-(3-chlorobenzyl)-4-(((methylcarbamoyl)oxy)methyl)thiazol-2-yl)amino)-2-oxoethyl methylsulfamate] | 
11 | 500 to 1000 nM | CNS(=O)(=O)OCC(=O)Nc1nc(C)c(Oc2cccc(Cl)c2)s1 [Example 61, 2-((5-(3-chlorophenoxy)-4-methylthiazol-2-yl)amino)-2-oxoethyl methylsulfamate] | 
12 | ≤ 500 nM | CNS(=O)(=O)OCC(=O)Nc1nc2c(s1)C(c1cccc(Cl)c1)CCC2 (stereo not shown) [Example 62, 2-((7-(3-chlorophenyl)-4,5,6,7-tetrahydrobenzo[d]thiazol-2-yl)amino)-2-oxoethyl methylsulfamate] | 

Continued, molecule first:

Row | SMILES | IC50 (MutSβ) | minimal effective concentration (U20S-IC6 cells)
13 | CNS(=O)(=O)OCC(=O)N(C)c1nc(C)c(Cc2cccc(Cl)c2)s1 [Example 1, 2-((5-(3-chlorobenzyl)-4-methylthiazol-2-yl)(methyl)amino)-2-oxoethyl methylsulfamate] | ≤ 500 nM | ≤ 0.1 µM
14 | CNS(=O)(=O)OCC(=O)Nc1nc(C)c(Cc2cccc(Br)c2)s1 [Example 10, 2-((5-(3-bromobenzyl)-4-methylthiazol-2-yl)amino)-2-oxoethyl methylsulfamate] | ≤ 500 nM | 0.1 to 0.5 µM
15 | CNS(=O)(=O)OCC(=O)Nc1nc(C)c(Cc2ccc(Cl)c(Cl)c2)s1 [Example 12, 2-((5-(3,4-dichlorobenzyl)-4-methylthiazol-2-yl)amino)-2-oxoethyl methylsulfamate] | ≤ 500 nM | 0.5 to 1 µM
16 | CNS(=O)(=O)OCC(=O)Nc1nc(C)c(Cc2ccc(F)c(F)c2)s1 [Example 14, 2-((5-(3,4-difluorobenzyl)-4-methylthiazol-2-yl)amino)-2-oxoethyl methylsulfamate] | 1000 to 10000 nM | 0.1 to 0.5 µM
17 | CCNS(=O)(=O)OCC(=O)Nc1nc(C)c(Cc2ccc(C)cc2)s1 [Example 15, 2-((4-methyl-5-(4-methylbenzyl)thiazol-2-yl)amino)-2-oxoethyl ethylsulfamate] | 1000 to 10000 nM | 0.5 to 1 µM
18 | CNS(=O)(=O)OCC(=O)Nc1nc(C)c(Cc2cccc(Cl)c2)s1 [Example 19, 2-((5-(3-chlorobenzyl)-4-methylthiazol-2-yl)amino)-2-oxoethyl methylsulfamate] | 500 to 1000 nM | ≤ 0.1 µM
19 | CNS(=O)(=O)OCC(=O)Nc1nc(C)c(Cc2cccc(F)c2)s1 [Example 27, 2-((5-(3-fluorobenzyl)-4-methylthiazol-2-yl)amino)-2-oxoethyl methylsulfamate] | 1000 to 10000 nM | 0.1 to 0.5 µM
20 | CCN(C)S(=O)(=O)OCC(=O)Nc1nc(C)c(Cc2ccc(C)cc2)s1 [Example 39, 2-((4-methyl-5-(4-methylbenzyl)thiazol-2-yl)amino)-2-oxoethyl ethyl(methyl)sulfamate] | 1000 to 10000 nM | 1 to 5 µM
21 | CCNS(=O)(=O)OCC(=O)Nc1nc(C)c(Cc2cccc(Cl)c2)s1 [Example 46, 2-((5-(3-chlorobenzyl)-4-methylthiazol-2-yl)amino)-2-oxoethyl ethylsulfamate] | ≤ 500 nM | ≤ 0.1 µM
22 | CNS(=O)(=O)OCC(=O)Nc1nc(COC2CCN(C)CC2)c(Cc2cccc(Cl)c2)s1 [Example 50, 2-((5-(3-chlorobenzyl)-4-(((1-methylpiperidin-4-yl)oxy)methyl)thiazol-2-yl)amino)-2-oxoethyl methylsulfamate] | 10000 to 50000 nM | 
